Laboratory results reported in patent publication EP0540969B1, “Derivatives of structurally modified VIP and pharmaceutical compositions containing them” (YEDA RESEARCH AND DEVELOPMENT CO. LTD., priority 1991, dated 1998).

Columns and labels:
castrated rats = assay: Biological tests for penile reflexes (latency and number of E2 and cups) after transdermal application; assay type: in vivo; conditions: ointment with Sefsol 318 carrier; for Number of E2: during the test period (Fig. 1C); for Number of Cups: during the test period (Fig. 1D)
Procedure: The following ointment compositions were prepared and tested for transdermal application of lipophilic conjugated modified VIP derivatives in accordance with the present invention. Similar conjugates of unmodified VIP derivatives were tested for comparison. • 1. Ointment containing glycerine as a carrier: The ointment was prepared as follows: 2 g glycerine + 10 mg stearoyl-VIP + 7 drops of DMSO (dimethylsulfoxide). Each rat received 30-50 µg of stearoyl-VIP in about 10 µl ointment. (GLY in Figure 1). • 2. Ointment containing a lubricant as a carrier: The ointment was prepared as above, only glycerine was replaced by lubricant (K-Y Lubricating Jelly, Johnson & Johnson, containing propylene glycol and glycerine), 7 drops of DMSO equals about 130 µl. (LUB in Figure 1). • 3. Ointment containing a lubricant and nitroglycerine as a carrier: Prepared as in (2) above with 1.7 ml nitroglycerine (1 mg/ml), (LUB-NTG in Figure 1). • 4. Ointment containing Sefsol 318™ (12) as a carrier: The ointment composition was: 31.2 µl 10% Sefsol 318™ (glyceryl monocaprylate), 0.24 mg stearoyl-VIP in 31.2 µl DMSO (1-2µl per animal) (SEFS in Figure 1) or 0.24 mg stearoyl -Nle^17-VIP in 31.2µl DMSO (SEFS in Fig. 1).
The biological tests involved measurements of penile reflexes in castrated rats following transdermal application of modified and native VIP conjugates. […] In a further set of experiments the effects of stearoyl-VIP compounded with Sefsol 318™ were compared with those of stearoyl -Nle^17-VIP compounded with Sefsol 318™.
Rats with reduced sexual potential due to castration were employed. Male rats (250-300 g, about three month old) were kept in a 12-hours light, 12-hours dark cycle. Experiments were always conducted within the dark period, 2-6 hours after the onset of darkness. Male rats were castrated and given partial testosterone replacement (4 µg/100 g body weight) in the form of daily injection for 14-21 consecutive days (the duration of the experiment). Experiments were conducted one week following surgery.
A procedure was utilized that employed the technique that measures sexual reflexes in the penis, which enables direct evaluation of penile erection following transdermal administration of the drug. Successful reproduction depends, in large part, upon the precise execution of temporally organized, functionally related behavioural units. In these experiments, we concentrated on the final stages of the erection process (reddening of the penis accompanied by its distension and extension leading to complete erection) and monitored the latency time to the first E2 and first cup (13).
For testing, each animal was restrained in a supine position with the anterior portion of its body enclosed in a loosely fitting cylinder (7 cm diam). After a belt was secured around the torso, the glans penis was extruded from its sheath and gently held perpendicular to the abdomen by a thin wooden applicator positioned at the posterior of the penis. The legs of the male were held by the observer and this position was maintained throughout the test period. The duration of the session was 45 minutes. The latencies and numbers of E2 and cups were recorded and plotted.
An E2 is defined as a complete erection which can be followed by cup in which the penile tip is turned into a cup-like structure, whereby the glands flare out such that the penis is wider in its distal portion than its base. This final stage requires E2 and is probably a pre-requisite for ejaculation (13). Using all the parameters one can obtain a reliable measure of the sexual activity of the tested rat.
Six to ten animals were tested in this paradigm for each variable. Control animals received ointment compositions without St-VIP or St-Nle^17-VIP.

[1] = Skin penetration and body distribution of 125I-labelled VIP derivatives after transdermal application in Sefsol 318; assay type: in vivo
Source text: These experiments were divided into two groups. In the first group of experiments we performed a time course of the distribution of radioactively labelled stearoyl-Nle^17-VIP (in Sefsol 318™), applied transdermally, in various organs of the body. In the second group of experiments we compared the penetration of four radioactively labelled VIP derivatives with Sefsol 318™ following transdermal application. Two to four animals were used for each data point. The derivatives were labelled with ^125I using the chloramine-T based method (14).
In the first group of experiments, stearoyl-Nle^17-VIP was radioactively labelled with ^125I. Each animal received 2.2 million CPM, in 6µl of the radioactive material+ 26µl ointment (ointment No. 4 in Example 5). Two animals were used for each time point in two independent experiments. To avoid oral absorbance, the animal mouth was sealed. At indicated times following topical application, animals were sacrificed and duplicate tissue samples were removed, weighed and counted in a gamma counter. Tissues measured were: lungs (LU), heart (HE), kidneys (KI), liver (LI) and intestine (IN).
In the second group of experiments compositions of Sefsol 318™ and VIP, St-VIP, Nle^17-VIP and St-Nle^17-VIP were prepared. The experiments were performed as in Figure 2 with the only difference that each animal received a 2.4 million CPM. 2-4 animals were utilized for each variable. Animals were sacrificed 30 minutes after the application of the drug.

rat [2] = assay: Acute toxicology studies; assay type: in vivo; conditions: for gross side effects / mortality: dose of 7 mg/rat
Procedure: (§1) To assess the degree of toxicity and possible side effects of stearoyl-Nle^17-VIP, two types of studies were performed: 1. acute toxicology studies; 2. repeated dose toxicity studies.
(§2) The drug was prepared essentially as follows: 539 mg stearoyl-Nle^17-VIP+2.31 ml 10% Sefsol+2.31 ml 40% isopropanol. The experimental animal was the rat (160-300 g body weight).
(§3) In the acute toxicology studies, three routes of administration were chosen: 1. subcutaneous; 2. intravenous; 3. oral.

rat [3] = assay: Repeated dose toxicity studies, daily topical application; assay type: in vivo; conditions: daily topical application (to the sex organ), dose of 3.5 mg/animal
Procedure: as §1, §2, §3

[4] = Stability compared with the unmodified conjugate; assay type: physicochemical; conditions: compared with stearoyl-VIP in which the amino acid sequence was not altered

Compound	Number of E2 (castrated rats)	Number of Cups (castrated rats)	Latency to first E2 (castrated rats; 45 min session (Fig. 1A))	Latency to first cup (castrated rats; 45 min session (Fig. 1B))	tissue concentrations compared among VIP, St-VIP, Nle^17-VIP and St-Nle^17-VIP ([1]; in Sefsol 318, animals sacrificed 30 minutes after application (Fig. 3))	peak deliveries (time after administration) ([1]; in Sefsol 318, topical, lungs, heart, kidneys, liver, intestine (Fig. 2))	disappearance (time after administration) ([1]; in Sefsol 318, topical, tissue samples (Fig. 2))	LD50 (rat [2]; intravenous injection)	gross side effects (rat [2]; oral administration)	mortality (rat [2]; oral administration)	gross side effects (rat [2]; subcutaneous administration)	mortality (rat [2]; subcutaneous administration)	mortality (rat [3])	side effects (rat [3])	stability relative to stearoyl-VIP [4]
CCCCCCCCCCCCCCCCCC(=O)N[C@@H](Cc1c[nH]cn1)C(=O)N[C@@H](CO)C(=O)N[C@@H](CC(=O)O)C(=O)N[C@@H](C)C(=O)N[C@H](C(=O)N[C@@H](Cc1ccccc1)C(=O)N[C@H](C(=O)N[C@@H](CC(=O)O)C(=O)N[C@@H](CC(N)=O)C(=O)N[C@@H](Cc1ccc(O)cc1)C(=O)N[C@H](C(=O)N[C@@H](CCCNC(=N)N)C(=O)N[C@@H](CC(C)C)C(=O)N[C@@H](CCCNC(=N)N)C(=O)N[C@@H](CCCCN)C(=O)N[C@@H](CCC(N)=O)C(=O)N[C@@H](CCSC)C(=O)N[C@@H](C)C(=O)N[C@H](C(=O)N[C@@H](CCCCN)C(=O)N[C@@H](CCCCN)C(=O)N[C@@H](Cc1ccc(O)cc1)C(=O)N[C@@H](CC(C)C)C(=O)N[C@@H](CC(N)=O)C(=O)N[C@@H](CO)C(=O)N[C@H](C(=O)N[C@@H](CC(C)C)C(=O)N[C@@H](CC(N)=O)C(N)=O)[C@@H](C)CC)C(C)C)[C@@H](C)O)[C@@H](C)O)C(C)C [St-VIP, stearoyl-VIP, reference compound]	24	12	–	–	–	–	–	–	–	–	–	–	–	–	–
stearoyl -norleucine^17-VIP [St-Nle^17-VIP]	34	20	about 1 minute	10 min	highest concentrations	15 to 60 min	2.5 h	7 mg/rat	no gross side effects	no mortality	no gross side effects	no mortality	no mortality	nor any side effects	more stable
